Test results: ChEMBL document CHEMBL5584238, “Psammaplin A analogues with modified disulfide bond targeting histone deacetylases: Synthesis and biological evaluation” (Eur J Med Chem, 2024)
Activity calls are given as the source filed them. No cut-off for these calls is given here.

Legend:
[1] = Toxicity in mouse assessed as mortality at 5 mg/kg, ip administered every 2 days for 26 days; format: organism-based; conditions: in vivo, 624 h, time 26 day
HCT-116 = experiment: Induction of cell cycle arrest in human HCT-116 cells assessed as accumulation of cells at S phase at 0.4 uM after 24 hrs by PI staining based flow cytometry analysis (reference value: 52.8%); format: functional
[2] = target: Class 1 histone deacetylase (Homo sapiens) (UniProt Q13547+O15379+Q92769+Q9BY41); experiment: Inhibition of class 1 HDACs in human HCT-116 cells assessed as upregulation of acetylated alpha-H3 level at 1 uM incubated for 24 hrs by Western blotting analysis; format: cell-based
Class 1 histone deacetylase (Homo sapiens), sequence (O15379 whole entry, looked up): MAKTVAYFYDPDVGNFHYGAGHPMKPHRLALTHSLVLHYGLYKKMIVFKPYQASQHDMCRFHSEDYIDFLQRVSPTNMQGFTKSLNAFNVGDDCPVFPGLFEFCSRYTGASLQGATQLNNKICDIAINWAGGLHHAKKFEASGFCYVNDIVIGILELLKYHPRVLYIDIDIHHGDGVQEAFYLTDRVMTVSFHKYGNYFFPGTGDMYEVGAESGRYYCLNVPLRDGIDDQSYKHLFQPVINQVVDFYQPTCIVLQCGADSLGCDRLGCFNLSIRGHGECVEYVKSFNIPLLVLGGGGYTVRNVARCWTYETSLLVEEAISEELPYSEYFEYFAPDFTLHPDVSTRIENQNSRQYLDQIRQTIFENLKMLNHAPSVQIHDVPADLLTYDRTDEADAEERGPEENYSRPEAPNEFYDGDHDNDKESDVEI
Class 1 histone deacetylase (Homo sapiens), sequence (Q13547 whole entry, looked up): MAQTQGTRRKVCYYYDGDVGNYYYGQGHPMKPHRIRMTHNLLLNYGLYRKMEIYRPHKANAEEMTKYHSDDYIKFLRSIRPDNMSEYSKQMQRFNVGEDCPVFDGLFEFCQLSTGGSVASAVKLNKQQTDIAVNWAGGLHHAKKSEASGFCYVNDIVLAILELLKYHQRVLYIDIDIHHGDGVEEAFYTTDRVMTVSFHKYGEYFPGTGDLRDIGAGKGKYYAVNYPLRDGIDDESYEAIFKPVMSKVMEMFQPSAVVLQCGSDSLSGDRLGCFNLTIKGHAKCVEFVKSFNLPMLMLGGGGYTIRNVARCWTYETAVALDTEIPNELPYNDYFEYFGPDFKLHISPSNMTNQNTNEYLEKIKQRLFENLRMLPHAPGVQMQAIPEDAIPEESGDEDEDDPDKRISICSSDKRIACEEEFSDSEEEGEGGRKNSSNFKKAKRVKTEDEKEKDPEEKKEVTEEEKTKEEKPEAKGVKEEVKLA
Class 1 histone deacetylase (Homo sapiens), sequence (Q92769 whole entry, looked up): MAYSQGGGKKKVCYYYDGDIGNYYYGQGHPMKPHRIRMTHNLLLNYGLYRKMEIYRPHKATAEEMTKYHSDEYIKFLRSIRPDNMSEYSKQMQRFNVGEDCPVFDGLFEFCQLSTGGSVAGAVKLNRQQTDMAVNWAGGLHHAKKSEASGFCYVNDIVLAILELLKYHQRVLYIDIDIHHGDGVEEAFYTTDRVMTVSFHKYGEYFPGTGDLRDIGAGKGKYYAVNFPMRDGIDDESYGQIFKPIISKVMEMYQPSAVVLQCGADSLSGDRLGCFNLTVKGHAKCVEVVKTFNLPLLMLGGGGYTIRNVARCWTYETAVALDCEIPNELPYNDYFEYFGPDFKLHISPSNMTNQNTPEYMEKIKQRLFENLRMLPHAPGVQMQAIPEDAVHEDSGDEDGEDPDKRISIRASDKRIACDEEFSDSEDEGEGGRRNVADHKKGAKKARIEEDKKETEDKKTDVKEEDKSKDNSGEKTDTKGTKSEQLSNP
Class 1 histone deacetylase (Homo sapiens), sequence (Q9BY41 whole entry, looked up): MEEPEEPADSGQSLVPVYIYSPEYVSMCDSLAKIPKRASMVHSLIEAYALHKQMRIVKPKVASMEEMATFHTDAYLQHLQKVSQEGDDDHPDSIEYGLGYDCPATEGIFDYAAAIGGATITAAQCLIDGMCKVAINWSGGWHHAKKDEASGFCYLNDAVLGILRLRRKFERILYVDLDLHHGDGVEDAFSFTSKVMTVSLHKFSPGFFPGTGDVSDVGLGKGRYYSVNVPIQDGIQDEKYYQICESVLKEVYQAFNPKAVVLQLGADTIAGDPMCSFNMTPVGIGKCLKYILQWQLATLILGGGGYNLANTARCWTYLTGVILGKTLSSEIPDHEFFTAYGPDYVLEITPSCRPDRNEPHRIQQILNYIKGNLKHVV

NCI-H1581 = experiment: Antiproliferative activity against human NCI-H1581 cells incubated for 48 hrs by MTT assay; format: functional, cell-based; conditions: NCI-H1581, 48 h

SMILES	Activity [1]	Activity (HCT-116)	inhibition [2]	IC50 (NCI-H1581)
O=C(NCC[Se][Se]CCNC(=O)/C(Cc1ccc(O)c(Br)c1)=N/O)/C(Cc1ccc(O)c(Br)c1)=N/O	Toxic	–	–	–
O=C(NCC[Se][Se]CCNC(=O)/C(Cc1ccsc1)=N/O)/C(Cc1ccsc1)=N/O	–	39.56%	Active	260 nM
